Laboratory results taken from PMC8839189, “Bis-Amiridines as Acetylcholinesterase and Butyrylcholinesterase Inhibitors: N-Functionalization Determines the Multitarget Anti-Alzheimer’s Activity Profile” (Molecules, 2022).
Several values for one entry are separate records, joined by “and”; a condition that tells them apart may be missing. Equal values may be shown once. Read-outs that look alike come from different tables or passages of the source.

What was measured:
[1] = molecular target: T1, equine serum BChE (Equus caballus, UniProt P81908); test: biochemical; settings: n = 3
T1 construct: we used human erythrocyte AChE, equine serum BChE, and porcine liver CES; purchased Sigma-Aldrich; host or cells: equine serum
T1 sequence (P81908 whole entry): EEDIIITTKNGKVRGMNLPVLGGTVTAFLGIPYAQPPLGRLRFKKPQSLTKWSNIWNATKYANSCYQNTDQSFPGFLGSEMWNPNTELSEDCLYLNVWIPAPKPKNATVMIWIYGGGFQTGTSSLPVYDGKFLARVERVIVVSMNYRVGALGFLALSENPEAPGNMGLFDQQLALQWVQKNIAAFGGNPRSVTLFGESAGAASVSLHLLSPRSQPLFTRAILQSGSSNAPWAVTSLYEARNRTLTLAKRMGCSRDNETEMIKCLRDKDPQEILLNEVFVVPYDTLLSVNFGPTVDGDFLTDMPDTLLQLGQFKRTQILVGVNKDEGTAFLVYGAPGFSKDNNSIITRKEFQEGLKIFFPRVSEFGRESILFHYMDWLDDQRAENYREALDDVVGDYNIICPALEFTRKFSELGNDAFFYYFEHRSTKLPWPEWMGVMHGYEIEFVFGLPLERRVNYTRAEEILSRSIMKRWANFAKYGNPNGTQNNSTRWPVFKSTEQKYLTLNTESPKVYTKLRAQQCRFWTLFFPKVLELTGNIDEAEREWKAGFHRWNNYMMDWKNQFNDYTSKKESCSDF

[2] = tested on: porcine liver CES; test: CES inhibition, 4-NPA substrate; format: biochemical; settings: compound concentration 20 µM
[3] = molecular target: T2, EeAChE PAS (Electrophorus electricus, UniProt O42275); test: Propidium iodide displacement from the PAS of EeAChE; format: binding, Electric eel; settings: compound concentration 20 µM
T2 construct: purchased Sigma-Aldrich type VI-S
T2 sequence (O42275 24-633): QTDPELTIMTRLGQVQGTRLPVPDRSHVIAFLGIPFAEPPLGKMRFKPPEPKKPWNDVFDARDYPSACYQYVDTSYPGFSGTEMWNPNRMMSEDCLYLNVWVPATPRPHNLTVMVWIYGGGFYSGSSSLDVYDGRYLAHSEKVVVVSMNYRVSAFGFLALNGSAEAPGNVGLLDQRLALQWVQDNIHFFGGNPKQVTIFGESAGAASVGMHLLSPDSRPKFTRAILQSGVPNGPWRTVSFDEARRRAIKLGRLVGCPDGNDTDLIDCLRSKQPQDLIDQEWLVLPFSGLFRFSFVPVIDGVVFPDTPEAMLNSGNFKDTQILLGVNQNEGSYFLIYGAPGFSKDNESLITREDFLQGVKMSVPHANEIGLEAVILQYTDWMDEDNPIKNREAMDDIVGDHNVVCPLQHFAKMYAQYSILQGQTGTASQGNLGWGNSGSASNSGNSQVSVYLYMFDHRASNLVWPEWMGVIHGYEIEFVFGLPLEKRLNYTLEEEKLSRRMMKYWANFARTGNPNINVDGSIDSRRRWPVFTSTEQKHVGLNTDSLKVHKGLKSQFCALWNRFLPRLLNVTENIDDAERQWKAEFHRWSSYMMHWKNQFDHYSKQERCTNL
Description: The enzyme was Electric eel AChE (EeAChE type VI-S, lyophilized powder, Sigma-Aldrich). We selected this source of AChE for consistency with our other reports and because of the purity, specific activity, and lower cost compared to human AChE.
The assay is based on the high level of fluorescence intensity of propidium iodide bound with AChE decreasing in the presence of test compounds that competitively displace propidium iodide from the AChE PAS [25, 27]. Specificially, EeAChE ([…] final concentration) is incubated with the test compound (20 μM in 1 mM Tris-HCl buffer pH 8.0, 25 °C, for 15 min). Propidium iodide (final concentration 8 μM) is then added for a further 15-min incubation and the fluorescence spectrum is taken (530 nm (excitation) and 600 nm (emission)). The same concentration of propidium iodide in the Tris-HCI buffer was used as the blank. Triplicate determinations were recorded from a FLUOStar Optima microplate reader and results calculated via the following equation:% Displacement = 100 − (IFAChE+ Propidium + inhibitor/IFAChE + Propidium) × 100(1) where IFAChE + Propidium = fluorescence intensity of propidium iodide associated with AChE in the absence of the test compound (taken as 100%), and IFAChE + Propidium + inhibitor = fluorescence intensity of propidium iodide associated with AChE in the presence of the test compound.

[4] = molecular target: T3, human erythrocyte AChE (Homo sapiens, UniProt P22303); test: biochemical
T3 sequence (P22303 other isoform, or with tags, fused parts or gaps): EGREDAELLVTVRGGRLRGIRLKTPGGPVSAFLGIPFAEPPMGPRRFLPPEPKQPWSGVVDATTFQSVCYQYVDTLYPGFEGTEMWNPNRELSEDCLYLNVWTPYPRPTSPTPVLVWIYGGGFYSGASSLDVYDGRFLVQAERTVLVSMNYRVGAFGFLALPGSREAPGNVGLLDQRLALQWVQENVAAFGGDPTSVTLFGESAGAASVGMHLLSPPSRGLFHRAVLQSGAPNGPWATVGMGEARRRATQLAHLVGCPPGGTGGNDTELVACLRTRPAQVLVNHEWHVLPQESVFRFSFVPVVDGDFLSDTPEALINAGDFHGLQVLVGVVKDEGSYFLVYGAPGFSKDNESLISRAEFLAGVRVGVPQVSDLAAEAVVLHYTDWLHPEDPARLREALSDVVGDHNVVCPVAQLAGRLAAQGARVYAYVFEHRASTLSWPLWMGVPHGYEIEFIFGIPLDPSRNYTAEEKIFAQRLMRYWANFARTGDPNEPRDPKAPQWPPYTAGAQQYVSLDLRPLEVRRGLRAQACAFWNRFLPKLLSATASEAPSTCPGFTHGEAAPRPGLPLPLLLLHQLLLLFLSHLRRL

[5] = ABTS radical cation scavenging activity assay; settings: 1 h incubation; for IC50: ABTS•+ 100 μM; for ABTS•+-Scavenging Activity, TEAC: Trolox equivalent antioxidant capacity
Description: Radical scavenging activity of the compounds was assessed using the ABTS radical cation (ABTS^•+) decolorization assay with modifications, described in detail in [30, 32]. ABTS (2,2′-azino-bis-(3-ethylbenzothiazoline-6-sulfonic acid)) was purchased from Tokyo Chemical Industry Co., Ltd. (Tokyo, Japan), potassium persulfate (dipotassium peroxodisulfate), Trolox (6-hydroxy-2,5,7,8-tetramethylchroman-2-carboxylic acid), HPLC-grade ethanol, and DMSO were obtained from Sigma-Aldrich. All tested compounds were dissolved in DMSO.
The reaction was monitored for 1 h with an interval of 1–10 min. Data are given for 1 h of incubation of compounds with ABTS^•+ (100 μM final concentration). The reduction in absorbance was measured spectrophotometrically at 734 nm using xMark UV/VIS microplate spectrophotometer (Bio-Rad, Hercules, CA, USA). Ethanol blanks were run in each assay. Values were obtained from three replicates of each sample and three independent experiments. Standard antioxidant Trolox was used as a reference compound. Trolox equivalent antioxidant capacity (TEAC) values were determined as the ratio between the slopes obtained from the linear correlation of the ABTS radical absorbance with the concentrations of tested compounds and Trolox.

[6] = Ferric reducing antioxidant power (FRAP) assay; set-up: key: ratio of Trolox to test compound concentration giving same FRAP effect; settings: Trolox equivalents; compound concentration 20 µM
Description: The ferric reducing antioxidant power (FRAP) assay proposed by Benzie and Strain [106, 107] was modified to be performed in 96-well microplates, as described in detail in [32]. The FRAP reagent contained 2.5 mL of 10 mM TPTZ (2,4,6-tris(2-pyridyl)-s-triazine, Sigma-Aldrich) solution in 40 mM HCl, 2.5 mL of 20 mM FeCl3 (Sigma-Aldrich) in distilled water and 25 mL of 0.3 M acetate buffer (pH 3.6). Aliquots of 10 µL of the tested compound (compounds 3, 5 or reference substance) dissolved in DMSO (0.5 mM) were placed in quadruplicate. Absorbance was measured at the wavelength of 593 nm after 60-min incubation at 37 °C. In each case, Trolox was used as a reference compound to obtain the standard curve and value was calculated with respect to the activity of Trolox and expressed as Trolox equivalents (TE)—the values calculated as the ratio of the concentrations of Trolox and the test compound, resulting in the same effect on ferric reducing activity.

[7] = molecular target: T4, AChE (Homo sapiens, UniProt P22303); test: Kinetic study of AChE inhibition (Lineweaver-Burk); format: biochemical; settings: for type of AChE inhibition: Lineweaver–Burk plots; for Ki: read-out: Ki, the competitive component, AChE
T4 construct: we used human erythrocyte AChE, equine serum BChE, and porcine liver CES; purchased Sigma-Aldrich; host or cells: human erythrocytes
T4 sequence (P22303 other isoform, or with tags, fused parts or gaps): as above
Description: (§1) We assessed the mechanisms of AChE and BChE inhibition by performing a thorough analysis of enzyme kinetics. After a 5 min incubation at 25 °C (for temperature equilibration) with three increasing concentrations of inhibitor and six decreasing substrate concentrations, the residual enzyme activity was measured as described above for enzymatic assays.

[8] = molecular target: T5, BChE (Equus caballus, UniProt P81908); test: Kinetic study of BChE inhibition (Lineweaver-Burk); format: biochemical; settings: for type of BChE inhibition: Lineweaver–Burk plots; for Ki: competitive component; for αKi, BChE: non-competitive component
T5 construct: we used human erythrocyte AChE, equine serum BChE, and porcine liver CES; purchased Sigma-Aldrich; host or cells: equine serum
T5 sequence (P81908 whole entry): as the sequence (P81908 whole entry) above
Description: as §1

[9] = molecular target: β-amyloid (1–42) (Aβ42) (Homo sapiens, UniProt P05067); test: Inhibition of Aβ42 self-aggregation, Thioflavin T fluorescence; format: biochemical; settings: Aβ42 50 µM, compound 100 µM
Sequence of β-amyloid (1–42) (Aβ42) (P05067 672-713): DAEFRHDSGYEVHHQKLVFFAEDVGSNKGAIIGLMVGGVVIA
Description: The inhibitory effect of the test compounds toward Aβ42 self-aggregation was determined using the Thioflavin T (ThT) fluorescence method with minor modifications. […] Therefore, the decrease in ThT fluorescence correlates with the activity of studied compounds to inhibit the formation of amyloid aggregates.
A total of 1 mg of lyophilized HFIP-pretreated Aβ42 from rPeptide (Watkinsville, GA, USA) was dissolved in DMSO to obtain a stable initial solution ([Aβ42] = 500 μM), then it was aliquoted and stored at −20 °C.
Then, the samples were incubated for 24 h at 37 °C without stirring in the absence (base level of Aβ42 self-aggregation, control) or presence of the test compounds. Myricetin and propidium iodide were used as references (positive controls). All compounds were used at a concentration of 100 µM. […] Analyses were performed with a FLUOStar Optima microplate reader (LabTech, Ortenberg, Germany). […] Each assay was run in triplicate.

[10] = molecular target: T3, human erythrocyte AChE; settings: 5d (m = 5) relative to 5a (m = 2)
[11] = mean ± SEM, read-out: Equine Serum BChE, IC50

Compound	IC50 [1, 11]	Porcine Liver CES, (%) inhibition [2]	Displacement of Propidium from EeAChE PAS [3]	IC50 [4]	IC50 [5]	ABTS•+-Scavenging Activity, TEAC [5]	FRAP, TE [6]	αKi, the non-competitive component, AChE [7]	type of AChE inhibition [7]	Ki [7]	type of BChE inhibition [8]	Ki [8]	αKi, BChE [8]	inhibition at 100 µM [9]	enhancement of anti-AChE activity, fold [10]	IC50 ([1]; MEAN ± SEM, read-out: IC50 for BChE inhibition (Figure S25))	Inhibition of Aβ42 Self-Aggregation [9]
O=C(CNCCCCCCNCC(=O)Nc1c2c(nc3c1CCC3)CCCC2)Nc1c2c(nc3c1CCC3)CCCC2 [Compound 3d]	1.11 ± 0.04 µM	6.0 ± 0.6%	11.2 ± 0.8%	1.39 ± 0.1 µM	–	–	–	–	–	–	–	–	–	–	–	–	–
O=C(CNCCCNCC(=O)Nc1c2c(nc3c1CCC3)CCCC2)Nc1c2c(nc3c1CCC3)CCCC2 [Compound 3b]	0.128 ± 0.002 µM	4.4 ± 0.5%	14.7 ± 1.2%	2.91 ± 0.74 µM	> 200 µM	0.05 ± 0.003	0.05 ± 0.01	–	–	–	–	–	–	–	–	–	–
O=C(CNCCNCC(=O)Nc1c2c(nc3c1CCC3)CCCC2)Nc1c2c(nc3c1CCC3)CCCC2 [Compound 3a]	0.11 ± 0.004 µM	4.8 ± 0.4%	14.4 ± 1.2%	1.64 ± 0.08 µM	~180 µM	0.10 ± 0.004	–	2.62 ± 0.13 µM	mixed-type inhibition	0.772 ± 0.047 µM	mixed-type inhibition	0.0578 ± 0.0025 µM	0.189 ± 0.007 µM	–	–	–	–
S=C(NCCCCCNC(=S)Nc1c2c(nc3c1CCC3)CCCC2)Nc1c2c(nc3c1CCC3)CCCC2 [Compound 5d]	0.76 µM and 0.758 µM	12.8 ± 1.1%	11.2 ± 1.0%	4.01 ± 0.13 µM	10.9 ± 0.7 µM	1.6 ± 0.06	0.45 ± 0.03	7.75 ± 0.11 µM	mixed-type inhibition	1.18 ± 0.08 µM	mixed-type inhibition	0.34 ± 0.012 µM	1.85 ± 0.06 µM	12.8 ± 1.1%	24 fold	–	–
S=C(NCCCCCCCCNC(=S)Nc1c2c(nc3c1CCC3)CCCC2)Nc1c2c(nc3c1CCC3)CCCC2 [Compound 5g]	1.45 ± 0.09 µM	15.9 ± 1.5%	2.2 ± 0.2%	26.6 ± 0.6 µM	10.8 ± 0.6 µM	1.5 ± 0.07	0.85 ± 0.03	–	–	–	–	–	–	5.2 ± 0.4%	–	–	–
O=C(CNCCCCNCC(=O)Nc1c2c(nc3c1CCC3)CCCC2)Nc1c2c(nc3c1CCC3)CCCC2 [Compound 3c]	0.067 ± 0.001 µM	0.8 ± 0.2%	17.7 ± 1.4%	1.46 ± 0.03 µM	~200 µM	0.10 ± 0.005	–	–	–	–	–	–	–	–	–	0.0696 µM	–
S=C(NCCCCCCCNC(=S)Nc1c2c(nc3c1CCC3)CCCC2)Nc1c2c(nc3c1CCC3)CCCC2 [Compound 5f]	1.18 ± 0.08 µM	5.8 ± 0.3%	2.5 ± 0.2%	6.28 ± 0.46 µM	12.4 ± 0.8 µM	1.2 ± 0.05	0.55 ± 0.01	–	–	–	–	–	–	3.7 ± 0.3%	–	–	–
Nc1c2c(nc3c1CCC3)CCCC2 [Amiridine]	–	–	–	–	–	0.04 ± 0.003	–	–	–	–	–	–	–	–	–	–	–
Cc1c(C)c2c(c(C)c1O)CCC(C)(C(=O)O)O2 (stereo not shown) [Trolox, 6-hydroxy-2,5,7,8-tetramethylchroman-2-carboxylic acid, reference compound]	–	–	–	–	20 µM and 20.1 µM	1.0	1.0	–	–	–	–	–	–	–	–	–	–
S=C(NCCNC(=S)Nc1c2c(nc3c1CCC3)CCCC2)Nc1c2c(nc3c1CCC3)CCCC2 [Compound 5a, 2,2′-Ethane-1,2-diylbis[N-(2,3,5,6,7,8-hexahydro-1H-cyclopenta[b]quinolin-9-yl)(thiourea)]]	4.08 ± 0.23 µM	4.3 ± 0.2%	7.6 ± 0.6%	96 ± 3.7 µM	7.6 ± 0.4 µM	2.1 ± 0.07	0.52 ± 0.04	–	–	–	–	–	–	2.9 ± 0.2%	–	–	–
S=C(NCCCCNC(=S)Nc1c2c(nc3c1CCC3)CCCC2)Nc1c2c(nc3c1CCC3)CCCC2 [Compound 5c]	0.802 ± 0.081 µM	9.6 ± 0.8%	10.0 ± 0.8%	7.53 ± 0.59 µM	9.7 ± 0.6 µM	1.8 ± 0.05	0.35 ± 0.02	–	–	–	–	–	–	17.2 ± 1.5%	–	–	–
S=C(NCCCNC(=S)Nc1c2c(nc3c1CCC3)CCCC2)Nc1c2c(nc3c1CCC3)CCCC2 [Compound 5b]	0.689 ± 0.025 µM	4.2 ± 0.5%	9.3 ± 0.8%	10.9 ± 1 µM	9.9 ± 0.5 µM	1.9 ± 0.08	0.50 ± 0.03	–	–	–	–	–	–	1.6 ± 0.1%	–	–	–
CC[N+](C)(CC)CCC[n+]1c(-c2ccccc2)c2cc(N)ccc2c2ccc(N)cc21.[I-].[I-] [Propidium iodide, reference compound]	–	–	–	–	–	–	–	–	–	–	–	–	–	–	–	–	90.7 ± 7.1%
S=C(NCCCCCCNC(=S)Nc1c2c(nc3c1CCC3)CCCC2)Nc1c2c(nc3c1CCC3)CCCC2 [Compound 5e]	0.769 ± 0.02 µM	10.3 ± 1.0%	11.1 ± 0.9%	4.08 ± 0.46 µM	10.9 ± 0.7 µM	1.5 ± 0.07	0.49 ± 0.01	–	–	–	–	–	–	14.3 ± 1.1%	–	–	–
O=C(CNCCCCCCCCNCC(=O)Nc1c2c(nc3c1CCC3)CCCC2)Nc1c2c(nc3c1CCC3)CCCC2 [Compound 3e]	6.65 ± 0.5 µM	5.1 ± 0.9%	13.2 ± 1.0%	11.7 ± 1.1 µM	> 200 µM	0.04 ± 0.002	0.05 ± 0.01	–	–	–	–	–	–	–	–	–	–
O=[N+]([O-])c1ccc(OP(=O)(O)Oc2ccc([N+](=O)[O-])cc2)cc1 [BNPP, bis-4-nitrophenyl phosphate, reference compound]	–	99.1 ± 0.93 ^3%	–	–	–	–	–	–	–	–	–	–	–	–	–	–	–
